Measured values taken from US20220041616A1, “SPIRO COMPOUND AND MEDICAL USES THEREOF” (The National Institutes of Pharmaceutical R&D Co., Ltd., priority 2018, published 2022).
Each block holds one molecule with its values, some of them ahead of it.

Assays:
patients = settings: 10 patients, 20 mg orally once a day for 12 weeks; cited from earlier work
[1] = tested on: patients with non-alcoholic steatohepatitis (NASH); settings: cited from earlier work
ACC1 = molecular target: T1, ACC1 (Homo sapiens, UniProt Q13085); test: In vitro inhibition of ACC1 activity, ADP-Glo Kinase Analysis; format: biochemical; settings: 1 nM ACC1, 10 μM acetyl-CoA, 20 μM ATP
T1 construct: purchased BPS bioscience
From the text: ADP-Glo™ Kinase Analysis Kit (Promega) is used for the in vitro analysis of the inhibitory effect of the present compound on ACC1 or ACC2. ADP-Glo™ Kinase Analysis is a kinase detection analysis of luminescence method. ADP is produced in the process of catalyzing the substrate by ACC. ADP is converted into ATP which is then converted into light by Ultra-Glo™ luciferase. ADP is quantified by detecting the light signal, thus the enzyme activity can be measured by quantification of the ADP amount produced during the enzyme reaction. The analysis is carried out in two steps: in the first step, after the kinase reaction, a portion of ADP-Glo™ reagent equal in volume to the kinase reaction system is added to terminate the reaction and consume the remaining ATP; in the second step, a kinase detection reagent is added, which not only converts ADP into ATP, but also uses a coupled luciferase/luciferin reaction to detect newly synthesized ATP.
a. 10 mM compound stock solution (the present compound was dissolved in 100% DMSO to prepare the 10 mM stock solution) was diluted 50-fold to 200 μM with 100% DMSO, and then diluted in equal proportions (1:3) in a 96-well dilution plate (249944, Nunc). The gradient concentrations of the compound were 200 μM, 66.67 μM, 22.22 μM, 7.41 μM, 2.47 μM, 0.823 μM, 0.274 μM, 0.0914 μM, 0.0305 μM, 0.0102 μM, 0.00339 μM and 0.00113 μM.
b. 4.5 μL ACC1 working solution (BPS bioscience) (2.22 nM) was added to each well of a 384-well test plate (6007290, Perkin Elmer).
c. 0.5 μL of the serially diluted compound (prepared in step a) was added to each well of the 384-well test plate, which was centrifuged at 1000 rpm for 1 min and then incubated at room temperature for 15 min. The reaction system with compound GS-0976 at a final concentration of 0.1 μM was used as positive control; the reaction system with no compound but DMSO at a final concentration of 5% was used as negative control.
d. In the 384-well test plate (prepared in step c), 5 μL of the substrate working solution was added to each well to start the enzymatic reaction. The plate was centrifuged at 1000 rpm for 1 min and then incubated at room temperature for 30 min. The final concentration of each component in the ACC1 reaction system: 1 nM ACC1, 10 μM acetyl-CoA, 30 mM NaHCO3, and 20 μM ATP. The final concentration of each component in the ACC2 reaction system: 1.1 nM ACC2, 20 μM acetyl-CoA, 20 mM NaHCO3, and 15 μM ATP. Final concentrations of test compounds: 10 μM, 3.33 μM, 1.11 μM, 0.37 μM, 0.123 μM, 0.0411 μM, 0.0137 μM, 0.00457 μM, 0.00152 μM, 0.00051 μM, 0.00017 μM and 0.000056 μM. The final concentration of DMSO was 5% (v/v).
e. 10 μL of ADP-Glo reagent was added to each well of the 384-well test plate (prepared in step d), which was centrifuged at 1000 rpm for 1 min and then incubated at room temperature for 40 min.
f. 20 μL of kinase detection reagent was added to each well of the 384-well test plate (prepared in step e), which was centrifuged at 1000 rpm for 1 min and then incubated at room temperature for 40 min.
g. The chemiluminescence signal was detected with Perkin Elmer EnVision 2104.
ACC1 working solution and substrate working solution were both prepared with 1× kinase reaction buffer. The buffer was consisting of 50 mM HEPES buffer, 2 mM magnesium chloride, 0.01% BRIJ-35, 2 mM potassium citrate, 50 μg/mL BSA and 2 mM DTT.
The average value of the positive and negative control well and the standard deviation were calculated. The inhibition percentage was calculated according to the following formula: 100×[1−(compound−average value of positive control)/(average value of negative control-average value of positive control)].
IC50 of the compound was obtained using GraphPad Prism 6 software according to the following nonlinear fitting formula:
Y=Bottom+(Top−Bottom)/(1+10^((Log IC50−X)×Hillslope)), […]

SMILES: COc1ccccc1[C@H](Cn1c(=O)n(C(C)(C)C(=O)O)c(=O)c2c(C)c(-c3ncco3)sc21)OC1CCOCC1 [GS-0976]
liver fat content and non-invasive fibrosis markers (patients): statistically significant improvements
relative decrease of liver fat content ([1]; 12th week, MRI-PDFF): 43%
median cirrhosis, non-invasive marker of fibrosis, by magnetic resonance elastography (MRE) ([1]; 12th week, baseline 3.4 kPa, p=0.049): 3.1 kPa
liver fat content measured by MRI-PDFF ([1]; 12th week, baseline 15.7%, p=0.006): 9.0%
decrease of the amount of denovo fat synthesis from the baseline level, median ([1]; after 12 weeks): 29%
tolerability ([1]; most common adverse events nausea, abdominal pain and diarrhea): well tolerated

SMILES: COc1ccccc1C(CN1C(=O)C2(CC(C(=O)O)C2)C(=O)c2c1sc(-c1ncco1)c2C)OC1CCOCC1 (single isomer, unassigned) [Compound 8b, 7′-(2-(2-methoxyphenyl)-2-((tetrahydro-2H-pyran-4-yl)oxy)ethyl)-3′-methyl-2′-(oxazol-2-yl)-4′,6′-dioxo-6′,7′-dihydro-4′H-spiro[cyclobutane-1,5′-thieno[2,3-b]pyridine]-3-carboxylic Acid]
IC50 (ACC1): 100 to 500 nM

Other lines, results leading:

IC50 (ACC1): < 10 nM
SMILES: COc1ccccc1C(CN1C(=O)C2(CCC(C(=O)O)C2)C(=O)c2c1sc(-c1ncco1)c2C)OC1CCOCC1 (single isomer, unassigned) [Compound 5d, 7′-(2-(2-methoxyphenyl)-2-((tetrahydro-2H-pyran-4-yl)oxy)ethyl)-3′-methyl-2′-(oxazol-2-yl)-4′,6′-dioxo-6′,7′-dihydro-4′H-spiro[cyclopentane-1,5′-thieno[2,3-b]pyridine]-3-carboxylic Acid]

IC50 (ACC1): 10 to 100 nM
SMILES: COc1ccccc1C(CN1C(=O)C2(CCC(C(=O)O)C2)C(=O)c2c1sc(-c1ncco1)c2C)OC1CCOCC1 (mixture of isomers) [Compound 5e, 7′-(2-(2-methoxyphenyl)-2-((tetrahydro-2H-pyran-4-yl)oxy)ethyl)-3′-methyl-2′-(oxazol-2-yl)-4′,6′-dioxo-6′,7′-dihydro-4′H-spiro[cyclopentane-1,5′-thieno[2,3-b]pyridine]-3-carboxylic Acid]

IC50 (ACC1): < 10 nM
SMILES: COc1ccccc1[C@H](CN1C(=O)C2(CCN(C(N)=O)CC2)C(=O)c2c1sc(-c1ncco1)c2C)OC1CCOCC1 [Compound 31]

IC50 (ACC1): 10 to 100 nM
SMILES: COC(=O)C(C)(C)N1CCC2(CC1)C(=O)c1c(sc(-c3ncco3)c1C)N(C[C@H](OC1CCOCC1)c1ccccc1OC)C2=O [Compound 25-1, methyl (R)-2-(7′-(2-(2-methoxyphenyl)-2-((tetrahydro-2H-pyran-4-yl)oxy)ethyl)-3′-methyl-2′-(oxazol-2-yl)-4′,6′-dioxo-6′,7′-dihydro-4′H-spiro[piperidine-4,5′-thieno[2,3-d]pyridin]-1-yl)-2-methylpropanoate]
